pIC50: −log10 of the molar value.
Assays:
human blood = experiment: In vitro anticoagulant effect on human blood (APTT, CT2); conditions: Table 2; concentration corresponding to 2 times the APTT of the blank control, human plasma
Method: Test Example 2: Determination of In Vitro Anticoagulant Effect of the Compounds of the Present Invention on Human Blood
1. Experimental Materials
Plasma: Human blood was collected in blood collection tubes containing no anticoagulant, and then 3.8% sodium citrate (volume ratio 1:9) was added. The tubes were centrifuged at 2500 rpm for 10 minutes at room temperature, and then the plasma was collected and stored at −80° C.;
Reagents: APTT reagent (Activated partial thromboplastin time assay kit, SIEMENS, Art. No. B4218-1), calcium chloride solution;
Instrument: Coagulation instrument (SYSMEX, CA-500).
The divided plasma was melted at room temperature and mixed well. 10000 μM the test compound dissolved in 100% DMSO was diluted to 3000, 300, 200, 150, 75, 30, 10, 3, 0.3 μM with 100% DMSO, and the blank was 100% DMSO. The reagent, plasma, and compound were placed in corresponding positions in the coagulation instrument, and APTT detection of the compound was carried out.
Curve fitting was carried out by graphpad and CT2 was calculated, i.e., the concentration of the compound corresponding to 2 times the APTT of the blank control.

[1] = molecular target: Coagulation Factor XIa protease (Homo sapiens (Human), UniProt P03951); experiment: Inhibition of Factor XIa detected by absorption photometry; assay type: biochemical; conditions: absorbance at 405 nm, 10 minutes at 37° C.
Method in brief: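 Compounds were serially diluted in 100% DMSO (200-0.002 μM dilution series) before addition to the wells. FXIa enzyme solution at 2.5 μg/ml and substrate solution at 2 mM were then added, both stock concentrations. After 10 min at 37° C., absorbance was read at 405 nm.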

Coagulation Factor XIa protease, sequence (P03951 388-625): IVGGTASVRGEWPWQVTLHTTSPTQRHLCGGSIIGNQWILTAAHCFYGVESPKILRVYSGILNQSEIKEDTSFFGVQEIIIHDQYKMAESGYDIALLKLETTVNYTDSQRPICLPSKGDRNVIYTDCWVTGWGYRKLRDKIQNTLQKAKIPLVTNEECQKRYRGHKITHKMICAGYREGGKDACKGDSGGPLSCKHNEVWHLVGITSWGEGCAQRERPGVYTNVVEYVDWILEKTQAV
Coagulation Factor XIa protease, sequence (P03951 19-387 partner): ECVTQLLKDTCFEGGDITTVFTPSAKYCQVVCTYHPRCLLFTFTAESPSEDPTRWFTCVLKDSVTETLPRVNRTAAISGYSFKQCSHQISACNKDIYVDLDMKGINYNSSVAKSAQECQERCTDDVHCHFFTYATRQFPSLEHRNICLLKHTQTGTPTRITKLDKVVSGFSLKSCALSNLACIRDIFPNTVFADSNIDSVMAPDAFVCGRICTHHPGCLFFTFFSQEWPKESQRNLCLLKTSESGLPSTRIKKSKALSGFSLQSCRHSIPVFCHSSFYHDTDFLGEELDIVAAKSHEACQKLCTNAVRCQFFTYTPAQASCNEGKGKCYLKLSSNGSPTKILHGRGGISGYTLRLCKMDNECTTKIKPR

pIC50 [1]	SMILES	CT2, concentration doubling APTT (human blood) [µM]
7.54	CCNC(=O)c1ccc(NC(=O)[C@H](Cc2ccccc2)n2cc(OC)c(-c3cc(Cl)ccc3C(C)=O)cc2=O)cc1 [Example 37, (S)-4-(2-(4-(2-acetyl-5-chlorophenyl)-5-methoxy-2-oxopyridin-1 (2H)-yl)-3-phenylpropanamido)-N-ethylbenzamide]	7.8
7.44	COc1cn(C(Cc2ccn(C3CC3)n2)C(=O)Nc2ccc3nn(C)cc3c2)c(=O)cc1-c1cc(Cl)ccc1C(C)=O (stereo not drawn) [Example 97, 2-(4-(2-acetyl-5-chlorophenyl)-5-methoxy-2-oxopyridin-(2H)-yl)-3-(l-cyclopropyl-1H-pyrazol-3-yl)-N-(2-methyl-2H-indazol-5-yl)propanamide]	5.4
7.38	CCC(=O)c1ccc(Cl)cc1-c1cc(=O)n(C(CC2CCCCO2)C(=O)Nc2ccc(C(=O)O)cc2)cc1OC (stereo not shown) [Example 166]	7.2
7.42	COc1cn(C(Cc2ccccc2)C(=O)Nc2ccc(C(=O)O)cc2)c(=O)cc1-c1cc(Cl)ccc1C(=O)CC1CC1 (stereo not shown) [Example 39, 4-(2-(4-(5-chloro-2-(2-cyclopropylacetyl)phenyl)-5-methoxy-2-oxopyridin-1(2H)-yl)-3-phenylpropanamido)benzoic acid]	8.3
7.52	COc1cn([C@@H](Cc2cnn(C)c2)C(=O)Nc2ccc(C(=O)O)cc2)c(=O)cc1-c1cc(Cl)ccc1C(C)=O [Example 105, (S)-4-(2-(4-(2-acetyl-5-chlorophenyl)-5-methoxy-2-oxopyridin-1(2H)-yl)-3-(1-methyl-1H-pyrazol-4-yl)propanamido)benzoic acid]	6.9
–	CCC(=O)c1ccc(Cl)cc1-c1cc(=O)n(C(Cc2ccn(C3CC3)n2)C(=O)Nc2ccc(C(=O)O)cc2)cc1OC (stereo not shown) [Example 91, 4-(2-(4-(5-chloro-2-propionylphenyl)-5-methoxy-2-oxopyridin-1 (2H)-yl)-3-(1-cyclopropyl-1H-pyrazol-3-yl)propanamido)benzoic acid]	2.1
–	[2H]C([2H])([2H])Oc1cn([C@H](Cc2ccccc2)C(=O)Nc2ccc(C(=O)O)cc2)c(=O)cc1-c1cc(Cl)ccc1C(C)=O [Example 180, 4-[[(2R)-2-[4-(2-acetyl-5-chloro-phenyl)-2-oxo-5-(trideuteromethoxy)-1-pyridyl]-3-phenyl-propionyl]amino]benzoic acid]	>10000
–	[2H]C([2H])([2H])Oc1cn([C@@H](Cc2ccccc2)C(=O)Nc2ccc(C(=O)O)cc2)c(=O)cc1-c1cc(Cl)ccc1C(C)=O [Example 179, 4-[[(2S)-2-[4-(2-acetyl-5-chloro-phenyl)-2-oxo-5-(trideuteromethoxy)-1-pyridyl]-3-phenyl-propionyl]amino]benzoic acid]	3.3

SMILES	pIC50 [1]	CT2, concentration doubling APTT (human blood) [µM]
COCC[C@H](C(=O)Nc1ccc2[nH]c(C(=O)O)cc2c1)n1cc(OC)c(-c2cc(Cl)ccc2C(C)=O)cc1=O [Example 3, (R)-5-(2-(4-(2-acetyl-5-chlorophenyl)-5-methoxy-2-oxopyridin-1 (2H)-yl)-4-methoxybutanamido)-1H-indole-2-carboxylic acid]	5.76	>10000
COc1cn([C@H](CCOC(C)(C)C)C(=O)Nc2ccc(C(=O)O)cc2)c(=O)cc1-c1cc(Cl)ccc1C(C)=O [Example 112, (R)-4-(2-(4-(2-acetyl-5-chlorophenyl)-5-methoxy-2-oxopyridin-1(2H)-yl)-4-(tert-butoxy)butanamido)benzoic acid]	< 5.00	>10000
COc1cn([C@@H](CCOC2CCC2)C(=O)Nc2ccc(C(=O)O)cc2)c(=O)cc1-c1cc(Cl)ccc1C(C)=O [Example 164, (S)-4-(2-(4-(2-acetyl-5-chlorophenyl)-5-methoxy-2-oxopyridin-1(2H)-yl)-4-cyclobutoxybutanamido)benzoic acid]	7.52	6.4
